In the case of `Cc1c(Cl)ccc(C(=O)O)c1F`, the melting point stood at 198 °C.
Then `COc1ccc2cc([C@H](C)C(=O)OCC(=O)N(C)CCCO[N+](=O)[O-])ccc2c1`, with 104 to 105 °C.
Then `O=C(O)CCc1cc2ccccc2c(-c2ccccc2)n1`, with 146 °C; and `CCOC(=O)Nc1cccc(N2CCN(CCC3CCN(CC(C)=O)CC3)CC2)c1`, with 118 °C.
The same measure for `Nc1nccnc1C(=O)NCCc1ncc[nH]1`: 204 to 208 °C.
Regarding `COc1ccc(C2(C#N)CCC(=O)CC2)c2nc(C(C)C)oc12`, the melting point is 118 °C.
Take `O=S(=O)(c1ccccc1)n1c2ccc(Br)cc2c2c(Cl)ccnc21`: the melting point fell in the range of 212 to 214 °C.
The same measure for `O=C(C(Cl)Cl)N1CCCCCCC1`: 83 °C; for `CC(=O)SCC(C)C(=O)N(C(C)C(=O)O)C1CCc2ccccc21` (stereo unspecified): 133 to 137 °C.
In turn, `CCCCn1ccc(-c2ccc3c(c2)OCCN3C2CCOCC2)c(Cl)c1=O` returned a melting point of 141 °C.
In the case of `COCCCOc1ccc(CCCOC(=O)NS(=O)(=O)NCCOC(C)C)c(Oc2ncc(C(F)(F)F)cc2Cl)c1`, the melting point is 67.4 to 68 °C.
Then `COC(=O)CN1CCC(OC)(c2cccc(OCc3ccc4ccccc4c3)c2)C1` (stereo unspecified), with 78 to 80 °C.
The same measure for `CCOc1c(OC)cccc1-c1nc2ccc(C(=O)Cl)cc2c(=O)[nH]1`: 93 to 94 °C.
For the compound `CSC(=S)C1(c2ccccn2)CCCCS1` (stereo unspecified), the melting point amounted to 79 °C.
Compound `CCOC(=O)c1cc(NCc2ccccc2)c(Nc2ccc(C)cc2)c(S(N)(=O)=O)c1` showed a melting point of 159 to 160 °C.
The same measure for `CS(=O)(=O)c1ccc(-c2nc(=O)c3ccccc3s2)cn1`: 205 to 207 °C; for `Cc1nc(NC(=N)N)sc1C(=O)Nc1cccc(OCC(=O)OC(C)(C)C)c1`: 204 °C; for `CCOC(=O)c1ncn2c1c(Cl)nc1ccccc12`: 128 to 130 °C.
Regarding `CS(=O)(=O)NCCCCn1c(CCCOc2ccccc2)nc2c(N)nc3ccccc3c21`, the melting point lay within 156 to 157 °C.
The same measure for `O=C(O)CCCCN1C(=O)c2ccc(C(=O)O)cc2C1=O`: 223 °C; for `CSc1sc(C(=O)N2CCCC2)c2c1-c1oncc1C(C)(C)C2`: 114 to 116 °C.
The same measure for `NC(=S)NN=C(CCC(=O)NC1CCCCC1)c1ccccc1`: 89 to 92 °C; for `CC(C)C(NC(=O)OCc1ccccc1)C(=O)NC(Cc1ccc(OCCN2CCOCC2)cc1)C(=O)C(F)(F)C(=O)NCc1ccccc1` (stereo unspecified): 142 °C.
The same measure for `COC(=O)C1Cc2c([nH]c3ccccc23)C(c2cccc(OC)c2)N1` (stereo unspecified): 146 °C; for `C=CC(=O)OCCCCCCOc1ccc(C(=O)OCCOCC2(c3ccccc3)C=CC=CC2C=Cc2ccc(OCCCCCC)cc2)cc1` (stereo unspecified): 87 °C; for `CC12CCC(=O)C=C1CCC1C2C(O)CC2(C)C1CCC2(O)C(=O)COC(=O)CC(CC(=O)O)c1ccc(O)cc1` (stereo unspecified): 98 to 110 °C.
Regarding `N#Cc1ccc2c(c1)C(n1ccccc1=O)=CC(CF)(CF)O2`, the melting point was 174 to 175 °C.
Then `COc1ccc(N2CCN(c3c(C)c(C)c4c(c3C)C(c3ccc(F)cc3)C(C)(C)O4)CC2)cc1` (stereo unspecified), with 139 to 141 °C; and `CCc1noc(NS(=O)(=O)c2ccccc2)c1C`, with 94 to 95 °C; and `CCOc1ccc(-c2nc(-c3ccc(OC(C)=O)c(C(=O)O)c3)cs2)cc1OCC`, with 178 to 179 °C.
The same measure for `O=C(O)COc1cccc2c1CCc1sc(SC(c3cccc(F)c3)c3cccc(F)c3)nc1-2`: 155 to 158 °C; for `Cc1noc(-c2cc3c4ccccc4n(CCCCl)c3cn2)n1`: 180 to 185 °C; for `CCOC(OCC)N1C(=O)C(c2ncnc3cc(OCCOC)c(OC)cc23)c2cc(F)ccc21` (stereo unspecified): 245 to 255 °C.
The same measure for `Cc1oc(-c2ccco2)nc1COc1ccc(COc2nn(Cc3ccccc3)cc2CO)cc1OCc1ccccc1`: 145 to 146 °C; for `CC1CCN(CCOc2ccc(NC(=O)CC(=O)c3ccc(-c4ccccc4)cc3)cc2Cl)CC1`: 135 to 139 °C; for `CC(C)(C)OC(=O)N[C@@H](Cc1ccc(Cc2ccccc2)cc1)C(=O)O`: 103 to 107 °C.
Compound `COc1ccc(N2CCN(Cc3ccc(NC(=O)/C=C/c4cccc(-c5ccc(C)cc5)c4)cc3)CC2)cc1` returned a melting point of 207 to 208 °C.
As for `O=C1c2ccccc2C(=O)c2sc(-c3cc(Br)co3)nc21`, the melting point is greater than 260 °C.
Then `CC(C)(C)c1ccc(CN2CCC3(CC2)CC(=O)c2ccccc2O3)cc1`, with 149 to 151 °C.
Then `O=C(N[C@@H](Cc1ccccc1)[C@@H](O)[C@H](O)[C@H](Cc1ccccc1)NC(=O)OCc1ccccc1)OCc1ccccc1`, with 215 to 216 °C; and `COc1cc2c(c3c1OC(C)(C)C3)C(c1cccc(NC(=O)CS(C)=O)c1)=NC(C)(C)C2` (stereo unspecified), with 198 to 201 °C.
Then `COc1ccc2c(c1)c(/C=C/C(=O)c1ccncc1)cn2C`, with 178 to 182 °C; and `CCn1c(C(C)NS(=O)(=O)c2ccc(Cl)c(Cl)c2)cnc1Oc1ccc2cc[nH]c2c1` (stereo unspecified), with 150 to 154 °C; and `C1COCCOCCNCCOCCOCCOCCN1`, with 0 °C.
`CN1N=C(c2ccc(F)cc2)c2ccc(C(F)(F)F)cc2CS1(=O)=O` came in with a melting point of 160 to 162 °C.
Compound `CC(C)Cn1c(=O)n(C)c(=O)c2c(S(=O)(=O)CCCC(=O)O)c(Cc3cccc4ccccc34)sc21` registered a melting point of 174 to 175 °C.
The same measure for `COc1ccccc1N1CCN(CCNc2ccccc2OC(F)(F)F)CC1`: 69.5 to 71 °C; for `O=C(NCC#CCN1CCCC1)N1c2ccccc2-c2noc3c2C1CCC3` (stereo unspecified): 132 °C.
Then `O=C(O)C1Oc2cc(Cl)c(S(=O)(=O)c3cccc(F)c3)cc2O1` (stereo unspecified), with 161 to 163 °C; and `CC(C)CC(NC(=O)c1ccccc1)C(=O)NC(CCCN(C(=N)NC(=O)OCc1ccccc1)C(=O)OCc1ccccc1)C(=O)Oc1cccc2ccccc12` (stereo unspecified), with 178 to 187 °C; and `Cc1nc2ccccc2n2cnc(-c3nc(C4CC4)no3)c12`, with 188 to 189 °C.
`CCCCCCCCCCCCCCCCOC(=O)c1cc(C(=O)OCCCCCCCCCCCCCCCC)cc(S(=O)(=O)O)c1` had a melting point of 63 to 65 °C.
Then `Cc1nc2ccccn2c(=O)c1CCN1CCC(Nc2nc3ccccc3n2Cc2cnccn2)CC1`, with 204 °C; and `c1ccc(COc2ccc([C@H]3CC[C@@H](NCCOc4ccccc4)CC3)cc2)cc1`, with 95 to 98 °C; and `Clc1ccc(C=Cc2ncon2)cc1`, with 134 °C.
The same measure for `CCNC(=O)n1oc2ccccc2c1=O`: 112 to 113 °C; for `Cc1c(O)cc(O)cc1C(=O)OCc1ccc([N+](=O)[O-])cc1`: 160 to 163 °C; for `Fc1ccc2c(c1)CCc1cccnc1C2=C1CCNCC1`: 134 °C.
The same measure for `O=C(N[C@H](Cc1cccc(OC(F)(F)C(F)F)c1)[C@@H](O)c1ccc(CN2CCCCC2)cc1)c1cccc2c1C=CCCC2` (racemic): 104 to 106 °C; for `CCCCOc1c(N)c(=O)c1=O`: 166 to 168 °C.
In turn, `N#CC=C1CCc2cnc3c(c21)CCO3` had a melting point of 153 to 155 °C.
Then `CCN(CC)CCNC(=O)N1CCCC(S(=O)(=O)c2ccc(Cl)cc2)C1` (stereo unspecified), with 141 to 142 °C; and `CCN(CC)C(=O)c1ccoc1-c1ccc(Cl)cc1`, with 64 to 66 °C.
Then `CN1C(=O)c2ccc(NCC(O)CCl)cc2C1=O` (stereo unspecified), with 136 to 138 °C; and `CCCC(C1CCCCC1)n1cncc1C(=O)O` (stereo unspecified), with 202 °C.
`CNC(=O)C1CCc2c(C(=O)c3ccccc3)cccc21` (stereo unspecified): the melting point lay within 145 to 146 °C.
The same measure for `OCc1cc(-c2ccc(Cl)cc2)nc2ccnn12`: 185 to 186 °C; for `C[C@H]1CCCC(C)(C)[C@@H]1C(=O)c1ccc(C#N)c(F)c1`: 53 to 56 °C; for `COC(=O)c1ccccc1NCCCc1ccccc1`: 103 to 105 °C.
`CCn1cc(C(=O)O)c(=O)c2cc(F)c(N3CCN(C)C(COc4ccccc4)C3)cc21` (stereo unspecified) yielded a melting point of 202 to 204 °C.
`Oc1ccc(C2=COc3ccccc3O2)cc1` gave a melting point of 137 to 140 °C.
For `Cc1cc(C=Cc2ccccc2O)on1`, the melting point was 236 to 238 °C.
Then `O=C(O)c1cnc2cc(O)ccc2c1`, with greater than 260 °C; and `c1ccc(-c2ccc3cc(COc4ccc(CCCn5ccnc5)cc4)cnc3c2)cc1`, with 135 to 136 °C.
Then `O=[N+]([O-])c1cc2ccccc2c2nccnc12`, with 163 to 165 °C; and `COc1cc(C(=O)O)cc(OC)c1N(C)C`, with 65 to 69 °C; and `CCCc1c(OCCCCCBr)ccc2c1OCCC2=O`, with 47 to 48 °C.
The same measure for `COc1ccc(OCc2ccccc2)c2c1OCCO2`: 70 °C.
In turn, `CCCCCC(=O)N1c2ccccc2NC(=O)c2cscc21` had a melting point of 127 to 129 °C.
Then `CCc1nc2c(C)cc(C)nc2n1Cc1ccc(-c2ccccc2S(=O)(=O)Nc2onc(C)c2C)c(CN2CCC(C)(C)C2=O)c1`, with 95 to 104 °C.
The same measure for `COn1nnc2cc3c(=O)n(C(C)Cn4ncnn4)nnc3cc2c1=O` (stereo unspecified): 227 to 231 °C; for `O=C1CCC(N2C(=O)c3cccc(NCC(=O)NC4CC4)c3C2=O)C(=O)N1` (stereo unspecified): 240 to 242 °C.
Then `Cc1c(CNCC(C)(C)O)n(C)c2c(C)c(NC(=O)c3ccc(OC[C@@H]4CCCO4)cc3F)ccc12`, with 131 to 132 °C; and `COc1cccc(Oc2nccc(-c3c(-c4ccc(F)cc4)ncn3C3CCNCC3)n2)c1`, with 117 to 118 °C; and `CC1c2cc(C(C)(C)C)cc(C(C)(C)C)c2OP(OCCNC(C)(C)C)Oc2c1cc(C(C)(C)C)cc2C(C)(C)C` (stereo unspecified), with 174 to 175 °C.
Regarding `CCC1CCC(C2CCC(CC)CC2)CC1` (stereo unspecified), the melting point is -6 °C.
